Assay results taken from US20190054054A1, “Methods reducing or preventing oxidation of high density lipoprotein (HDL)” (Amarin Pharmaceuticals Ireland Limited, priority 2017, published 2019).

Tests used:
[1] = system: human LDL; assay: Copper-induced oxidation of unfractionated LDL, TBARS (Example 7); format: biochemical; conditions: for effect on unfractionated LDL oxidation as compared to vehicle-treated controls: all agents at 10 μM, 1 hour (FIG. 25)
Protocol: An experiment to study the antioxidant effect of EPA in LDL and small dense […] performed. […] Fenofibrate, gemfibrozil, and niacin were purchased from Sigma-Aldrich. […] Vitamin E was also incubated with sample aliquots as a positive control.

[2] = Membrane cholesterol domain peak intensity, x-ray diffraction of POPC/cholesterol membranes (Example 9); conditions: 1.5:1 C/P mole ratio; for % change Vs control / Relative Cholesterol Domain Preak Intensity: drug-to-phospholipid mole ratio 1:30; for Relative Cholesterol Domain Preak Intensity: POPC and cholesterol
Protocol: The fatty acid stock solutions were stored at −20° C. until use. […] Samples were shell-dried under nitrogen gas and placed under vacuum for 3 hours to remove residual solvent at room temperature. After desiccation, each sample was resuspended in saline buffer (0.5 mM HEPES, 154 mM NaCl, pH 7.3) to yield a final phospholipid concentration of 2.5 mg/mL. Lipid suspensions were then vortexed for 3 minutes at ambient temperature to form MLVs. Membrane lipid vesicles were oriented for x-ray diffraction analysis as described by others (e.g., Herbette et al., Biophys. […] Briefly, a 100 μL aliquot of each MLV preparation (containing 250 μg MLV) was transferred to a Lucite® sedimentation cell fitted with an aluminum foil substrate designed to collect MLVs into a single membrane pellet upon centrifugation. […] After centrifugal orientation, sample supernatants were aspirated and aluminum foil substrates, each supporting a single membrane pellet, were removed from the sedimentation cells. Sample pellets were dried for 5-10 minutes at ambient conditions, mounted onto curved glass supports, and placed in hermetically-sealed, brass or glass containers (for immediate analysis or temporary storage, respectively). All x-ray diffraction experiments were conducted at 20° C., 74% relative humidity. The latter was established by exposing membrane samples to saturated solutions of L-(+)-tartaric acid (K2C4H4O6.½H2O) for at least 1 hour prior to experimental analysis. Oriented membrane samples were aligned at grazing incidence with respect to a collimated, mono-chromatic CuKα x-ray beam (Kα1 and Kα2 unresolved; λ=1.54 Å) produced by a Rigaku Rotaflex RU-200, high-brilliance microfocus generator (Rigaku-MSC, The Woodlands, Tex.) as previously described (Mason et al., Biophys. J., vol. 55(4), pages 769-778 (1989)). The samples were initially subjected to x-ray diffraction analysis at least 12 hours after formation of the membrane pellets and retested for up to several days. Analytical x-rays were generated by electron bombardment of a rotating copper anode and are filtered through a thin nickel foil to provide monochromatic radiation (λ=1.54 Å). Collimation of the x-ray beam was achieved using a single Franks mirror. Diffraction data were collected on a one-dimensional, position-sensitive electron detector (Hecus X-ray Systems, Graz, Austria) at a sample-to-detector distance of 150 mm from the sample site. The d-space for any given membrane multi bilayer is a measurement of the unit cell periodicity of the membrane lipid bilayer (e.g., the distance from the center of one lipid bilayer to the next including surface hydration), and is calculated from Bragg's Law, h λ=2 d sin θ, where h is the diffraction order, λ is the wavelength of the x-ray radiation (1.54 Å), d is the membrane lipid bilayer unit cell periodicity, and θ is the Bragg angle equal to one-half the angle between the incident beam and scattered beam. […] Routines written in Origin 8.6 (OriginLab Corporation, Northampton, Mass.) were used to determine total peak area (associated with all diffraction peaks in a given pattern) against which the second-order cholesterol domain peak was normalized. The raw data collected in this study was normalized using internal. Data were presented as mean+S.E.M. for (N) separate samples or treatment groups. Differences between groups were analyzed using the two-tailed, Student's t-test (for comparisons between only two groups) or ANOVA followed by Dunnett or Student-Newman-Keuls multiple comparisons post-hoc analysis (for comparisons between three or more groups). Alpha error was set to 0.05 in this study.

[3] = system: sdLDL isolated from human subjects under conditions of hyperglycemia; assay: Glucose-induced sdLDL oxidation, MDA/TBARS (Example 10); format: biochemical; conditions: 200 mg/dL glucose; for effect on glucose-induced sdLDL oxidation: 10.0 μM
Protocol: Vitamin E (α-tocopherol) purchased from Sigma-Aldrich was prepared in ethanol at 1.0 mM (E=[…] at 294 nm) prior to experimental use. Test compounds were further diluted in ethanol or aqueous buffer as needed. Phosphate Buffered Saline (PBS) purchased from Sigma-Aldrich was prepared in double distilled water at 10 mM (138 mM NaCl, 2.7 mM KCl, pH 7.4). […] Lipid oxidation was measured by the colorimetric detection of malondialdehyde (MDA), a marker of oxidative stress. Data were presented as mean±SD for (n) separate samples or experiments. Differences between groups were analyzed using the unpaired, two-tailed Student's t-test (for comparisons between only two groups) or ANOVA followed by Student-Newman-Keuls multiple comparisons post hoc analysis (for comparisons between three or more groups).

[4] = system: HUVECs; assay: NO release from HUVECs incubated with agent-treated oxidized sdLDL (Example 12); format: cell-based, human; conditions: for reduction of NO release as compared to vehicle-treated, oxidized sdLDL: oxidized sdLDL pretreated with agent at 10.0 μM
Protocol: All samples, with the exception of non-oxidized sdLDL controls, were subjected to copper-induced oxidation for 1 hour. Human umbilical vein endothelial cells (HUVECs) were incubated with the various sdLDL samples, stimulated with calcium, and monitored for nitric oxide (NO) and peroxynitrite (ONOO^−) release using nanosensor technology.

[5] = EPA to phospholipid mole ratio 1:60
[6] = EPA to phospholipid mole ratio 1:90

CC/C=C\C/C=C\C/C=C\C/C=C\C/C=C\CCCC(=O)O [EPA, cis-5,8,11,14,17-eicosapentaenoic acid]
effect on unfractionated LDL oxidation, dose dependence ([1]; 1 hour): significantly and reproducibly inhibited unfractionated LDL oxidation in a dose-dependent manner
inhibition of TBARS formation compared to vehicle-treated control ([1]; highest treatment concentration, 1 hour): > 90%
reduction in cholesterol domain peaks as compared to vehicle treatment ([2]; 1:30): 65%
% Change (vs. Control) [2, 5]: −30.2 ± 27.9%
Relative Cholesterol Domain Peak Intensity [2, 5]: 29.5 ± 10.9
% Change (vs. Control) [2, 6]: −15.0 ± 12.6%
Relative Cholesterol Domain Peak Intensity [2, 6]: 36.0 ± 3.1
% change Vs control [2]: −65.5 ± 17.1%
Relative Cholesterol Domain Preak Intensity [2]: 14.6±5
IC50 ([3]; read-out: IC50, inhibition of glucose-induced sdLDL oxidation): < 1000 nM
inhibition of sdLDL oxidation as compared to vehicle controls ([3]; highest concentration tested): 94%
sdLDL oxidation (formation of MDA) ([3]; highest concentration tested, unit of the source corrected): 0.2 ± 0.1 µM
increase in NO release as compared to non-oxidized sdLDL treatment ([4]; EPA-treated, oxidized sdLDL): 23%
increase in NO release as compared to oxidized LDL treatment ([4]; EPA-treated, oxidized sdLDL): 53%
HUVEC NO release ([4]; exposure to EPA-treated (10.0 μM), oxidized sdLDL): 931 ± 59 nM

O=C(O)c1cccnc1 [niacin, nicotinic acid]
effect on unfractionated LDL oxidation as compared to vehicle-treated controls [1]: no significant effect on unfractionated LDL oxidation
effect on cholesterol domains (in words) ([2]; 1:30): no significant changes in cholesterol domain size
% change Vs control [2]: −35%
% change Vs control ([2]; listed as Niacin): −35.0 ± 30.8%
Relative Cholesterol Domain Preak Intensity [2]: 27.5±12.2
Relative Cholesterol Domain Preak Intensity ([2]; listed as Niacin): 27.5 ± 12.2
effect on glucose-induced sdLDL oxidation [3]: did not inhibit glucose-induced sdLDL oxidation
reduction of NO release as compared to vehicle-treated, oxidized sdLDL [4]: 45%

Cc1ccc(C)c(OCCCC(C)(C)C(=O)O)c1 [gemfibrozil]
effect on unfractionated LDL oxidation as compared to vehicle-treated controls [1]: no significant effect on unfractionated LDL oxidation
effect on cholesterol domains (in words) ([2]; 1:30): no significant changes in cholesterol domain size
% change Vs control [2]: 11%
% change Vs control ([2]; listed as Gemfib): 10.9 ± 43.3%
Relative Cholesterol Domain Preak Intensity [2]: 46.9±12.6
Relative Cholesterol Domain Preak Intensity ([2]; listed as Gemfib): 46.9 ± 12.6
effect on glucose-induced sdLDL oxidation [3]: did not inhibit glucose-induced sdLDL oxidation
reduction of NO release as compared to vehicle-treated, oxidized sdLDL [4]: 33%

Cc1c(C)c2c(c(C)c1O)CC[C@@](C)(CCC[C@H](C)CCC[C@H](C)CCCC(C)C)O2 [vitamin E, α-tocopherol]
effect on unfractionated LDL oxidation as compared to vehicle-treated controls [1]: no significant effect on unfractionated LDL oxidation
effect on glucose-induced sdLDL oxidation [3]: failed to inhibit sdLDL oxidation
increase in sdLDL oxidation as compared to glucose-treated controls [3]: 63%
